Source: US9738649B2 (priority 2006, dated 2017)
Counter-ions that a name gives are not always drawn.

Each molecule was assayed against rat TRPV1 (Rattus norvegicus (Rat), UniProt O35433). Conditions: read-out: Rat IC50.
rat TRPV1, sequence (O35433 whole entry): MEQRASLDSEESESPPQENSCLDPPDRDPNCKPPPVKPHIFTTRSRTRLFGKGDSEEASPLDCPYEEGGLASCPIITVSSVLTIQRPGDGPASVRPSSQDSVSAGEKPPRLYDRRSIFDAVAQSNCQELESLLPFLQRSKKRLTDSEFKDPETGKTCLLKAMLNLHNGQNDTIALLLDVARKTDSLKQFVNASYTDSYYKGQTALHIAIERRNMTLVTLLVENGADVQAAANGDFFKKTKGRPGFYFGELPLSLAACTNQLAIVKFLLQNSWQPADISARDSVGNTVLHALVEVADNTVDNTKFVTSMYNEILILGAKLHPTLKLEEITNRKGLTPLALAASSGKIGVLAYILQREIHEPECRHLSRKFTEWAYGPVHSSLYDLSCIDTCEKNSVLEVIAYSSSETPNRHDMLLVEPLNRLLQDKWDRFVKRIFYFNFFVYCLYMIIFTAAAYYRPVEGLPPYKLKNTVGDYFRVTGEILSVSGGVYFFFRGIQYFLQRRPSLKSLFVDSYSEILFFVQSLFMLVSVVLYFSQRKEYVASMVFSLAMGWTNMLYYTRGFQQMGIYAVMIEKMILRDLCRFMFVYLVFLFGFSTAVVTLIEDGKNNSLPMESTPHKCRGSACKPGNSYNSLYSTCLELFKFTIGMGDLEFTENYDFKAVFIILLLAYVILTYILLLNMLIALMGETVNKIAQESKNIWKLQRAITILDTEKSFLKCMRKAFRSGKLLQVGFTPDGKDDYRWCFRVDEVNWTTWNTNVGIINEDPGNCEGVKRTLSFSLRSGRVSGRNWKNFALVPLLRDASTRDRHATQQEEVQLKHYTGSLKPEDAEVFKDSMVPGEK
Method: Biological Testing: Functional Assay: Block of Capsaicin-Induced Ca^2+ Influx A. Human Assay
Cells were passaged frequently, every 3-5 days, to avoid overgrowth, depletion of essential medium components, or acidic medium exposure. Cells were passaged using a brief wash in 0.05% trypsin with 1 mM EDTA, followed by dissociation in divalent-free phosphate-buffered saline (Hyclone #SH30028.02). […] The assay buffer was composed of 130 mM NaCl, 2 mM KCl, 2 mM MgCl2, 10 mM HEPES, 5 mM glucose, and either 2 mM or 20 μM CaCl2. On the day of the experiment, the culture medium was replaced with 2 mM calcium assay buffer using an automated plate washer (ELx405; Biotek, VT). […] After loading the cells, the dye solution was replaced with 50 μL/well of 20 μM calcium assay buffer using the ELx405 plate washer. Test compounds (50 μL/well) were added to the plate and incubated for 30 min. […] The IC50 values were determined. […] The contents of the wells were mixed 3 times (40 μL mix volume) immediately after the additions were made. Concentration dependence of block was determined by exposing each well of cells in duplicate rows of a 96 well plate to a serial dilution of test compound. The concentration series usually started at 10 μM with a three-fold serial decrement in concentration. The magnitude of the capsaicin response was determined by measuring the change in fluo3 fluorescence before and 100 seconds after the addition of the agonist. Data were analyzed using a non-linear regression program (Origin; OriginLab, MA). IC50 values shown are the average (mean) of the results obtained.
The assay was performed as described above, using HEK293 cells transfected with rat TRPV1 (rTRPV1/HEK293). […] IC50 values shown are the average (mean) of the results obtained.
Work on `CN(C)c1nc2c(c(Nc3ccc(C(F)(F)F)nc3)n1)CCN(c1ncccc1C(F)(F)F)CC2` [Example 43B, N^2,N^2-Dimethyl-N^4-(6-trifluoromethyl-pyridin-3-yl)-7-(3-trifluoro-methyl-pyridin-2-yl)-6,7,8,9-tetrahydro-5H-pyrimido[4,5-d]azepine-2,4-diamine trifluoroacetic acid salt] yielded an IC50 of 390 nM. `O=C(O)C1CCN(c2nc3c(c(Nc4ccc(C(F)(F)F)cc4)n2)CCN(c2ncccc2C(F)(F)F)CC3)CC1` [Example 57B, 1-[4-(4-Trifluoromethyl-phenylamino)-7-(3-trifluoromethyl-pyridin-2-yl)-6,7,8,9-tetrahydro-5H-pyrimido[4,5-d]azepin-2-yl]-piperidine-4-carboxylic acid trifluoroacetic acid salt] gave an IC50 of 5500 nM. With `FC(F)(F)c1ccc(Nc2nc(NCCN3CCCCC3)nc3c2CCN(c2ncccc2C(F)(F)F)CC3)cc1` [Example 58B, N^2-(2-Piperidin-1-yl-ethyl)-N^4-(4-trifluoromethyl-phenyl)-7-(3-trifluoro-methyl-pyridin-2-yl)-6,7,8,9-tetrahydro-5H-pyrimido[4,5-d]azepine-2,4-diamine trifluoroacetic acid salt] the IC50 was 1500 nM. `FC(F)(F)c1ccc(Nc2nc(NC3CCOCC3)nc3c2CCN(c2ncccc2C(F)(F)F)CC3)cc1` [Example 61B, N^2-(Tetrahydro-pyran-4-yl)-N^4-(4-trifluoromethyl-phenyl)-7-(3-trifluoro-methyl-pyridin-2-yl)-6,7,8,9-tetrahydro-5H-pyrimido[4,5-d]azepine-2,4-diamine trifluoroacetic acid salt] gave an IC50 of 230 nM. Molecule `CN(C)c1nc2c(c(NCc3ccc(Cl)c(Cl)c3)n1)CCN(c1ncccc1C(F)(F)F)CC2` [Example 73B, N^4-(3,4-Dichloro-benzyl)-N^2,N^2-dimethyl-7-(3-trifluoromethyl-pyridin-2-yl)-6,7,8,9-tetrahydro-5H-pyrimido[4,5-d]azepine-2,4-diamine trifluoroacetic acid salt] has an IC50 of 6700 nM.
